According to ChEMBL document CHEMBL5385961, “In vitro and in vivo evaluation of novel chromeno[2,3-d]pyrimidinones as therapeutic agents for triple negative breast cancer” (RSC Med Chem, 2024):
Activity calls are given as the source filed them. No cut-off for these calls is given here.

Assays:
[1] = Cytotoxicity against human MCF-10A cells assessed as inhibition of cell growth incubated for 72 hrs by SRB assay; assay type: toxicity, cell-based
[2] = species on record: Homo sapiens; assay: Selectivity index, ratio of IC50 for human MCF-10A cells to IC50 for human Hs-578T cells
[3] = system: Hs-578T; assay: Cytotoxicity against human Hs-578T cells assessed as reduction in cell proliferation at 0.5 times IC50 measured after 24 hrs by BrdU incorporation assay relative to control; assay type: functional; parameters: scale not given: the % may be the effect or the level left
[4] = system: Hs-578T; assay: Cytotoxicity against human Hs-578T cells assessed as reduction in cell proliferation at IC50 measured after 24 hrs by BrdU incorporation assay relative to control; assay type: functional; parameters: scale not given: the % may be the effect or the level left
[5] = system: Hs-578T; assay: Induction of apoptosis in human Hs-578T cells assessed as increase in caspase-8 protein expression at IC50 measured after 24 hrs by Western blot analysis; assay type: functional, cell-based
[6] = system: Hs-578T; assay: Induction of apoptosis in human Hs-578T cells assessed as increase in caspase-8 protein expression at IC50 measured after 48 hrs by Western blot analysis; assay type: functional, cell-based
[7] = system: Hs-578T; assay: Induction of apoptosis in human Hs-578T cells assessed as increase in caspase-9 protein expression at IC50 measured after 24 to 48 hrs by Western blot analysis; assay type: functional, cell-based; conditions: time 24-48 hrs
[8] = system: Hs-578T; assay: Induction of apoptosis in human Hs-578T cells assessed as increase in BID protein expression at IC50 measured after 24 to 48 hrs by Western blot analysis; assay type: functional, cell-based; conditions: time 24-48 hrs
[9] = system: Hs-578T; assay: Induction of apoptosis in human Hs-578T cells assessed as increase in BAD protein expression at IC50 measured after 24 to 48 hrs by Western blot analysis; assay type: functional, cell-based; conditions: time 24-48 hrs
[10] = system: Hs-578T; assay: Induction of apoptosis in human Hs-578T cells assessed as increase in early apoptotic cells at IC50 measured after 24 to 48 hrs by Annexin V-FITC/PI staining based flow cytometry analysis; assay type: functional, cell-based; conditions: time 24-48 hrs
[11] = system: Hs-578T; assay: Induction of apoptosis in human Hs-578T cells assessed as increase in early apoptotic cells at IC50 measured after 48 hrs by Annexin V-FITC/PI staining based flow cytometry analysis relative to control; assay type: functional
[12] = system: Hs-578T; assay: Induction of cell cycle arrest in human Hs-578T cells assessed as accumulation of cells at S phase at IC50 measured after 24 hrs by RNase/PI staining based flow cytometry analysis; assay type: functional
[13] = system: Hs-578T; assay: Induction of cell cycle arrest in human Hs-578T cells assessed as accumulation of cells at S phase at IC50 measured after 48 hrs by RNase/PI staining based flow cytometry analysis; assay type: functional
[14] = system: Hs-578T; assay: Induction of cell cycle arrest in human Hs-578T cells assessed as increase in G2/M phase cell population at IC50 measured after 24 hrs by RNase/PI staining based flow cytometry analysis; assay type: functional
[15] = system: Hs-578T; assay: Induction of cell cycle arrest in human Hs-578T cells assessed as reduction in G0/G1 cell population at IC50 measured after 24 hrs by RNase/PI staining based flow cytometry analysis; assay type: functional
[16] = Toxicity in wild type Caenorhabditis elegans N2 assessed as effect on food consumption at 0.0001 to 50 uM measured daily for 7 days by food clearance assay; conditions: 168 h, dose 0.0001-50 µM, time 7 day
[17] = Toxicity in wild type Caenorhabditis elegans N2 assessed as drug tolerance at 0.0001 to 50 uM; conditions: dose 0.0001-50 µM
[18] = system: Hs-578T; assay: Antitumor activity against human Hs-578T cells implanted in chick eggs assessed as tumor growth regression at 2 times IC50 administered starting from day 13 and measured 17 days post embryo development by stereomicroscopic analysis; assay type: functional, cell-based; conditions: time 5.0 day
[19] = Toxicity in wild type C57BL/6J mouse assessed as effect on body temperature at 10 to 50 mg/kg, ip administered daily for 7 days; assay type: organism-based; conditions: in vivo, 168 h, dose 10-50 mg/kg, time 7 day
[20] = Toxicity in wild type C57BL/6J mouse assessed as mean food intake at 10 mg/kg, ip administered daily for 7 days; assay type: organism-based; conditions: in vivo, 168 h, time 7 day
[21] = Toxicity in wild type C57BL/6J mouse assessed as mean food intake at 50 mg/kg, ip administered daily for 7 days; assay type: organism-based; conditions: in vivo, 168 h, time 7 day
[22] = Toxicity in wild type C57BL/6J mouse assessed as effect on vertical activity at 10 to 50 mg/kg, ip administered daily for 7 days and measured daily; assay type: organism-based; conditions: in vivo, 168 h, dose 10-50 mg/kg, time 7 day
[23] = Toxicity in wild type C57BL/6J mouse assessed as effect on bolus fecalis count at 10 to 50 mg/kg, ip administered daily for 7 days and measured daily; assay type: organism-based; conditions: in vivo, 168 h, dose 10-50 mg/kg, time 7 day
[24] = Toxicity in wild type C57BL/6J mouse assessed as effect on spontaneous activity at 10 to 50 mg/kg, ip administered daily for 7 days and measured daily; assay type: organism-based; conditions: in vivo, 168 h, dose 10-50 mg/kg, time 7 day
[25] = Toxicity in wild type C57BL/6J mouse assessed as transfer to reaction at 10 to 50 mg/kg, ip administered daily for 7 days and measured daily; assay type: organism-based; conditions: in vivo, 168 h, dose 10-50 mg/kg, time 7 day
[26] = Toxicity in wild type C57BL/6J mouse assessed as effect on body position at 10 to 50 mg/kg, ip administered daily for 7 days and measured daily; assay type: organism-based; conditions: in vivo, 168 h, dose 10-50 mg/kg, time 7 day
[27] = Toxicity in wild type C57BL/6J mouse assessed as effect on grooming at 10 to 50 mg/kg, ip administered daily for 7 days and measured daily; assay type: organism-based; conditions: in vivo, 168 h, dose 10-50 mg/kg, time 7 day
[28] = Toxicity in wild type C57BL/6J mouse assessed as effect on respiratory rate at 10 to 50 mg/kg, ip administered daily for 7 days and measured daily; assay type: organism-based; conditions: in vivo, 168 h, dose 10-50 mg/kg, time 7 day
[29] = Toxicity in wild type C57BL/6J mouse assessed as tremor at 10 to 50 mg/kg, ip administered daily for 7 days and measured daily; assay type: organism-based; conditions: in vivo, 168 h, dose 10-50 mg/kg, time 7 day
[30] = Toxicity in wild type C57BL/6J mouse assessed as effect on eyelid reflexes at 10 to 50 mg/kg, ip administered daily for 7 days and measured daily; assay type: organism-based; conditions: in vivo, 168 h, dose 10-50 mg/kg, time 7 day
[31] = Toxicity in wild type C57BL/6J mouse assessed as piloerection at 10 to 50 mg/kg, ip administered daily for 7 days and measured daily; assay type: organism-based; conditions: in vivo, 168 h, dose 10-50 mg/kg, time 7 day
[32] = Toxicity in wild type C57BL/6J mouse assessed as effect on fur quality at 10 to 50 mg/kg, ip administered daily for 7 days and measured daily; assay type: organism-based; conditions: in vivo, 168 h, dose 10-50 mg/kg, time 7 day
[33] = Toxicity in wild type C57BL/6J mouse assessed as straub tail reaction at 10 to 50 mg/kg, ip administered daily for 7 days and measured daily; assay type: organism-based; conditions: in vivo, 168 h, dose 10-50 mg/kg, time 7 day
[34] = system: Hs-578T; assay: Cytotoxicity against human Hs-578T cells assessed as cell viability at 10 uM incubated for 72 hrs by SRB assay relative to control; assay type: functional; conditions: read-out: Activity
[35] = system: Hs-578T; assay: Cytotoxicity against human Hs-578T cells assessed as cell viability at 30 uM incubated for 72 hrs by SRB assay relative to control; assay type: functional; conditions: read-out: Activity
[36] = system: MDA-MB-231; assay: Cytotoxicity against human MDA-MB-231 cells assessed as cell viability at 30 uM incubated for 72 hrs by SRB assay relative to control; assay type: functional; conditions: read-out: Activity
[37] = system: MCF7; assay: Cytotoxicity against human MCF7 cells assessed as cell viability at 10 uM incubated for 72 hrs by SRB assay relative to control; assay type: functional; conditions: read-out: Activity
[38] = system: MCF7; assay: Cytotoxicity against human MCF7 cells assessed as cell viability at 30 uM incubated for 72 hrs by SRB assay relative to control; assay type: functional; conditions: read-out: Activity
[39] = system: Hs-578T; assay: Cytotoxicity against human Hs-578T cells assessed as reduction in cell viability at 10 uM incubated for 72 hrs by SRB assay relative to control; assay type: functional

## Brc1ccc2c(c1)-c1cc(-c3ccccc3)nc3c1C(N=CN3c1ccccc1)O2 (centres undefined)
[1]
  IC50 at 72 h: 36.8 µM
[2]
  Ratio IC50: 3.26
[3]
  Activity: ~8%
[4]
  Activity: ~30%
[5]
  Activity: Active
[6]
  Activity: inactive
[7]
  Activity: Active
[8]
  Activity: Active
[9]
  Activity: Active
[10]
  Activity: Active
[11]
  Activity: ~50%
[12]
  Activity: inactive
[13]
  Activity: Active
[14]
  Activity: Active
[15]
  Activity: Active
[16]
  Activity: Non-Toxic
[17]
  Activity: Non-Toxic
[18]
  Activity: Active
[19]
  Activity: Non-Toxic
[20]
  Activity: ~ 3 g/day
[21]
  Activity: 2.94 g/day
[22]
  Activity: Non-Toxic
[23]
  Activity: Non-Toxic
[24]
  Activity: Non-Toxic
[25]
  Activity: Non-Toxic
[26]
  Activity: Non-Toxic
[27]
  Activity: Non-Toxic
[28]
  Activity: Non-Toxic
[29]
  Activity: Non-Toxic
[30]
  Activity: Non-Toxic
[31]
  Activity: Non-Toxic
[32]
  Activity: Non-Toxic
[33]
  Activity: Non-Toxic
[34]
  viability at 10 µM: 50.4%
[35]
  viability at 30 µM: 32.6%
[36]
  viability at 30 µM: 40.5%
[37]
  viability at 10 µM: 58%
[38]
  viability at 30 µM: 25.9%
[39]
  Activity: ~50%
